Target: T1, PD-1/PD-L1 (Homo sapiens, UniProt Q9NZQ7)
T1 construct: made in house; host or cells: HEK293T
Experiment: PD-1/PD-L1 Homogenous Time-Resolved Fluorescence (HTRF) binding assay
Details: PD-L1-His 10 nM, PD-1-Ig 20 nM; value given as range class; read-out: Range or IC50
Procedure, shortened: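 Binding measured in dPBS with 0.1% BSA and 0.05% Tween-20, detected by HTRF with europium cryptate anti-Ig (1 nM final) and APC anti-His (20 nM final) added over the binding reaction. Counter-assays used human PD-1-Ig/PD-L2-His (20 and 5 nM) and CD80-His/PD-L1-Ig (100 and 10 nM).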

T1 sequence (Q9NZQ7 with tags, fused parts or gaps): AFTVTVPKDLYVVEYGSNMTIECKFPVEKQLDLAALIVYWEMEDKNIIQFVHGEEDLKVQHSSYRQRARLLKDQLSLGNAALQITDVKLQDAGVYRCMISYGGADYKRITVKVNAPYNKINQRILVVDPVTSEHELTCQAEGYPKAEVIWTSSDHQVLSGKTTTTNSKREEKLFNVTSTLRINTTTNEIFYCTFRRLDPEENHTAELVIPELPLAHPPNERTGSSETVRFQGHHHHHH

| IC50 | Structure (SMILES) |
| --- | --- |
| 0.00021 to 0.01 µM | CC(CO)(CO)NCc1cc(Cl)c(OCc2cccc(-c3cccc(OCCCN4CC[C@@H](O)C4)c3Cl)c2Cl)cc1OCc1cc(Cl)ccc1Cl [Example 2112, (R)-2-((5-chloro-4-((2,2′-dichloro-3′-(3-(3-hydroxypyrrolidin-1-yl)propoxy)-[1,1′-biphenyl]-3-yl)methoxy)-2-((2,5-dichlorobenzyl)oxy)benzyl)amino)-2-methylpropane-1,3-diol] |
| 0.01 to 0.1 µM | CNC(=O)c1cccc(-c2cccc(COc3cc(OCc4cncc(C#N)c4)c(CN4C[C@H](O)C[C@H]4C(=O)O)cc3Cl)c2C)c1C [Example 4013, (2S,4R)-1-(5-chloro-2-((5-cyanopyridin-3-yl)methoxy)-4-((2,2′-dimethyl-3′-(methylcarbamoyl)-[1,1′-biphenyl]-3-yl)methoxy)benzyl)-4-hydroxypyrrolidine-2-carboxylic Acid] |
| 0.00021 to 0.01 µM | Cc1c(COc2cc(OCc3cncc(C#N)c3)c(CN(CCC(F)(F)F)C(CO)CO)cc2Cl)cccc1-c1cccc(OCCCN2CCC(O)(CO)CC2)c1Cl [Example 2074, 5-((4-chloro-5-((2′-chloro-3′-(3-(4-hydroxy-4-(hydroxymethyl)piperidin-1-yl)propoxy)-2-methyl-[1,1′-biphenyl]-3-yl)methoxy)-2-(((1,3-dihydroxypropan-2-yl)(3,3,3-trifluoropropyl)amino)methyl)phenoxy)methyl)nicotinonitrile] |
| 0.00021 to 0.01 µM | Cc1c(COc2cc(OCc3cncc(S(C)(=O)=O)c3)c(CNC(C)(CO)CO)cc2Cl)cccc1-c1cccc(OCCCN2CC[C@@H](O)C2)c1C [Example 1533, (R)-2-((5-chloro-4-((3′-(3-(3-hydroxypyrrolidin-1-yl)propoxy)-2,2′-dimethyl-[1,1′-biphenyl]-3-yl)methoxy)-2-((5-(methylsulfonyl)pyridin-3-yl)methoxy)benzyl)amino)-2-methylpropane-1,3-diol] |
| 0.00021 to 0.01 µM | Cc1c(COCCN2CC[C@@H](O)C2)cccc1-c1cccc(COc2cc(OCc3cncc(C#N)c3)c(CNC(C)(CO)CO)cc2Cl)c1C [Example 4131, (R)-5-((4-chloro-2-(((1,3-dihydroxy-2-methylpropan-2-yl)amino)methyl)-5-((3′-((2-(3-hydroxypyrrolidin-1-yl)ethoxy)methyl)-2,2′-dimethyl-[1,1′-biphenyl]-3-yl)methoxy)phenoxy)methyl)nicotinonitrile] |
| 0.00021 to 0.01 µM | Cc1c(COc2cc(OCc3cncc(C#N)c3)c(CN[C@@](C)(CO)C(=O)O)cc2Cl)cccc1-c1cccc(OCCCN2CCN(CCO)CC2)c1C [Example 2263, (2S)-2-(5-chloro-2-((5-cyanopyridin-3-yl)methoxy)-4-((3′-(3-(4-(2-hydroxyethyl)piperazin-1-yl)propoxy)-2,2′-dimethylbiphenyl-3-yl)methoxy)benzylamino)-3-hydroxy-2-methylpropanoic Acid] |
| 0.00021 to 0.01 µM | Cc1c(COc2cc(OCc3cncc(C#N)c3)c(CNC(C)(CO)CO)cc2Cl)cccc1-c1cccc(OCCCN2CCCCC2)c1C [Example 2287, 5-((4-chloro-2-(((1,3-dihydroxy-2-methylpropan-2-yl)amino)methyl)-5-((2,2′-dimethyl-3′-(3-(piperidin-1-yl)propoxy)-[1,1′-biphenyl]-3-yl)methoxy)phenoxy)methyl)nicotinonitrile] |
| 0.00021 to 0.01 µM | Cc1c(COc2cc(OCc3cncc(C#N)c3)c(CNC(CO)(CO)CO)cc2Cl)cccc1-c1cccc(CN(C)CCN2CCS(=O)(=O)CC2)c1C [Example 4083, 5-((4-chloro-2-(((1,3-dihydroxy-2-(hydroxymethyl)propan-2-yl)amino)methyl)-5-((3′-(((2-(1,1-dioxidothiomorpholino)ethyl)(methyl)amino)methyl)-2,2′-dimethyl-[1,1′-biphenyl]-3-yl)methoxy)phenoxy)methyl)nicotinonitrile] |
| 0.00021 to 0.01 µM | Cc1c(COc2cc(OCc3cncc(C#N)c3)c(CN3CCCC[C@H]3C(=O)O)cc2Cl)cccc1-c1cccc(C(=O)N2CC2)c1C [Example 4001, (S)-1-(4-((3′-(aziridine-1-carbonyl)-2,2′-dimethyl-[1,1′-biphenyl]-3-yl)methoxy)-5-chloro-2-((5-cyanopyridin-3-yl)methoxy)benzyl)piperidine-2-carboxylic Acid] |
| 0.00021 to 0.01 µM | COc1cc(/C=C/c2cccc(-c3cccc(OCCCN4CC[C@@H](O)C4)c3C)c2C)c(Cl)cc1CN1CCCC[C@H]1C(=O)O [Example 4517, (S)-1-(5-chloro-4-((E)-2-(3′-(3-((R)-3-hydroxypyrrolidin-1-yl)propoxy)-2,2′-dimethyl-[1,1′-biphenyl]-3-yl)vinyl)-2-methoxybenzyl)piperidine-2-carboxylic Acid] |
| 0.00021 to 0.01 µM | Cc1c(COc2cc(OCc3cncc(C#N)c3)c(CN3CCCC[C@H]3C(=O)O)cc2Cl)cccc1-c1cccc(OC[C@@H]2CCCN3CCCC[C@H]23)c1C [Example 1043, (S)-1-(5-chloro-2-((5-cyanopyridin-3-yl)methoxy)-4-((2,2′-dimethyl-3′-(((1R,9aR)-octahydro-1H-quinolizin-1-yl)methoxy)-[1,1′-biphenyl]-3-yl)methoxy)benzyl)piperidine-2-carboxylic Acid] |
| 0.01 to 0.1 µM | Cc1c(COc2cc(OCc3cncc(C#N)c3)c(CN(CCO)CCO)cc2Cl)cccc1-c1cccc(CN(C)CCN2CCS(=O)(=O)CC2)c1C [Example 4084, 5-((2-((bis(2-hydroxyethyl)amino)methyl)-4-chloro-5-((3′-(((2-(1,1-dioxidothiomorpholino)ethyl)(methyl)amino)methyl)-2,2′-dimethyl-[1,1′-biphenyl]-3-yl)methoxy)phenoxy)methyl)nicotinonitrile] |
| 0.00021 to 0.01 µM | Cc1c(COc2cc(OCc3cncc(C#N)c3)c(CN[C@](C)(CO)C(=O)O)cc2Cl)cccc1-c1cccc(OCCCN2CCC(O)C2)c1C#N (stereo in doubt) [Example 3010, (R)-2-((5-chloro-4-((2′-cyano-3′-(3-((R)-3-hydroxypyrrolidin-1-yl)propoxy)-2-methyl-[1,1′-biphenyl]-3-yl)methoxy)-2-((5-cyanopyridin-3-yl)methoxy)benzyl)amino)-3-hydroxy-2-methylpropanoic Acid] |
| 0.00021 to 0.01 µM | Cc1c(COc2cc(OCc3cncc(C#N)c3)c(CN3CCCC[C@H]3C(=O)O)cc2Cl)cccc1-c1cccc(OCCCN2CC[C@H](CO)[C@H](O)C2)c1C [Example 2203, (2S)-1-(5-chloro-2-((5-cyanopyridin-3-yl)methoxy)-4-((3′-(3-((3 S,4R)-3-hydroxy-4-(hydroxymethyl)piperidin-1-yl)propoxy)-2,2′-dimethylbiphenyl-3-yl)methoxy)benzyl)piperidine-2-carboxylic Acid] |
| 0.00021 to 0.01 µM | Cc1c(COc2cc(OCc3cncc(C#N)c3)c(CNC(C)(CO)CO)cc2Cl)cccc1-c1cccc(CN(C)CCN2CCS(=O)(=O)CC2)c1C [Example 4082, 5-((4-chloro-2-(((1,3-dihydroxy-2-methylpropan-2-yl)amino)methyl)-5-((3′-(((2-(1,1-dioxidothiomorpholino)ethyl)(methyl)amino)methyl)-2,2′-dimethyl-[1,1′-biphenyl]-3-yl)methoxy)phenoxy)methyl)nicotinonitrile] |
| 0.00021 to 0.01 µM | Cc1cc(OCc2cccc(-c3cccc(OCCCN4CC[C@@H](O)C4)c3C)c2C)cc(OCc2cncc(C#N)c2)c1CN(CCO)CCO [Example 4090, (R)-5-((2-((bis(2-hydroxyethyl)amino)methyl)-5-((3′-(3-(3-hydroxypyrrolidin-1-yl)propoxy)-2,2′-dimethyl-[1,1′-biphenyl]-3-yl)methoxy)-3-methylphenoxy)methyl)nicotinonitrile] |
| 0.01 to 0.1 µM | Cc1c(COc2cc(OCc3cncc(C#N)c3)c(CNC(C)(CO)CO)cc2Cl)cccc1-c1cccc(C(=O)N(C)C)c1C [Example 4035, 3′-((2-chloro-5-((5-cyanopyridin-3-yl)methoxy)-4-(((1,3-dihydroxy-2-methylpropan-2-yl)amino)methyl)phenoxy)methyl)-N,N,2,2′-tetramethyl-[1,1′-biphenyl]-3-carboxamide] |
| 0.00021 to 0.01 µM | Cc1ccccc1-c1cccc(COc2cc(OCc3cncc(C#N)c3)c(CN[C@@H](CO)C(=O)O)cc2Cl)c1C [Example 3021, (S)-2-((5-chloro-2-((5-cyanopyridin-3-yl)methoxy)-4-((2,2′-dimethyl-[1,1′-biphenyl]-3-yl)methoxy)benzyl)amino)-3-hydroxypropanoic Acid] |
| 0.00021 to 0.01 µM | Cc1c(COc2cc(OCc3cncc(C#N)c3)c(CN[C@@](C)(CO)C(=O)O)cc2Cl)cccc1-c1cccc(OCCCN2CCC[C@@H](C(=O)O)C2)c1C [Example 2239, (3R)-1-(3-(3′-((4-(((S)-2-carboxy-1-hydroxypropan-2-ylamino)methyl)-2-chloro-5-((5-cyanopyridin-3-yl)methoxy)phenoxy)methyl)-2,2′-dimethylbiphenyl-3-yloxy)propyl)piperidine-3-carboxylic Acid] |
| 0.00021 to 0.01 µM | Cc1c(COc2cc(OCc3cncc(C#N)c3)c(CN[C@@](C)(CO)C(=O)O)cc2Cl)cccc1-c1cccc(OCCCN2CCCC(CO)C2)c1C (stereo partly drawn) [Example 2260, (2S)-2-(5-chloro-2-((5-cyanopyridin-3-yl)methoxy)-4-((3′-(3-(3-(hydroxymethyl)piperidin-1-yl)propoxy)-2,2′-dimethylbiphenyl-3-yl)methoxy)benzylamino)-3-hydroxy-2-methylpropanoic Acid] |
| 0.00021 to 0.01 µM | COC(=O)[C@H]1CC[C@H](NCCCOc2cccc(-c3cccc(COc4cc(OCc5cncc(C#N)c5)c(CN5CCCC[C@H]5C(=O)O)cc4Cl)c3C)c2C)CC1 [Example 2229, (2S)-1-(5-chloro-2-((5-cyanopyridin-3-yl)methoxy)-4-((3′-(3-((1r,4r)-4-(methoxycarbonyl)cyclohexylamino)propoxy)-2,2′-dimethylbiphenyl-3-yl)methoxy)benzyl)piperidine-2-carboxylic Acid] |
